Source: ChEMBL document CHEMBL1201862, “PubChem BioAssay data set” (2004)
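Tested at 5 concentrations; 48 h exposure; 96-well plates; endpoints linearly interpolated, else capped at highest concentration. Abbreviation: GI50, concentration required for 50% inhibition of growth.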 Calls of active or inactive are those of the source. No stated cut-off is given here; in the data, active = GI50 up to about 1.1 µM and inactive = higher.

How the values were obtained:
Experiment in all cases: inhibition of tumour cell growth, NCI panel, 48 h
[1] = tested on: HOP-18
[2] = tested on: BT-549
[3] = tested on: Hs-578T
[4] = tested on: MDA-MB-231
[5] = tested on: MDA-MB-435
[6] = tested on: PC-3
[7] = tested on: T47D
[8] = tested on: RXF 631

Measured: GI50

C=C1C(=O)OC2C=C(C)CC3C=C(CCC=C(C)CCC12)C(=O)O3 (stereo not given)
inactive: [1] 51.3 µM

C=CCNC(=O)CN(CC(=O)OC)C1CCCCC1N(CC(=O)OC)CC(=O)OC (stereo not given)
inactive: [2] > 100 µM | [3] > 100 µM | [4] > 100 µM | [5] > 100 µM | [6] > 100 µM | [7] > 100 µM

CC(C)CNC1=NCC(C)S1 (stereo not given)
inactive: [2] > 100 µM | [3] > 100 µM | [4] > 100 µM | [5] > 100 µM | [6] > 100 µM | [7] > 100 µM

CNC(=O)N(C)COC
inactive: [1] > 100 µM

C#CC[N+](CCO)(CCO)CCCCCCCCCCCCCCCCCC
inactive: [1] 9.33 µM

Cc1cn(Cc2cn(CC3OC(n4cc(C)c(=O)[nH]c4=O)CC3O)nn2)c(=O)[nH]c1=O (stereo not given)
inactive: [2] > 100 µM | [3] > 100 µM | [4] > 100 µM | [5] > 100 µM | [6] > 100 µM | [7] > 100 µM

CCOc1ccc2nc(NC(=O)C(=O)C(C(=O)c3ccccc3F)C3OC(=O)c4ccccc43)sc2c1 (stereo not given)
inactive: [8] 14.5 µM

O=C(O)CN1CCN(CC(=O)O)CCN(CC(=O)O)CC1
inactive: [2] > 100 µM | [3] > 100 µM | [4] > 31.9 µM | [5] 30.8 µM | [6] > 28.5 µM | [7] > 100 µM

O=c1c2cccnc2oc2c(Cl)cc(-c3nnn[nH]3)cc12
inactive: [3] > 100 µM | [4] > 100 µM | [5] > 100 µM | [6] > 100 µM | [7] > 100 µM

CC1OC(CO)(n2cnc3c(N)ncnc32)C(O)C1O (stereo not given)
inactive: [1] > 100 µM

C=C(/C=C/C=C(\C)CCC=C(C)C)[C@@H]1CC[C@]2([C@H](CCCO)/C(=C(/C)C=O)CC[C@]2(C)O)[C@@H]1O
inactive: [1] 23.9 µM
